Results: PubChem BioAssay (NCI)
Values joined by “and” are separate entries in the source; they are usually repeats but may differ in a detail not shown here. Identical values can stand only once.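 At the GI50, growth is halved. TGI is the concentration that stops growth completely.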

What was measured:
Assay in all cases: inhibition of tumour cell growth, NCI panel, 384-well format
786-0 renal = system: 786-0 renal
A498 renal = system: A498 renal
A549 NSCLC = system: A549 NSCLC
ACHN renal = system: ACHN renal
BT-549 breast = system: BT-549 breast
CAKI-1 renal = system: CAKI-1 renal
CCRF-CEM leukemia = system: CCRF-CEM leukemia
COLO 205 colon = system: COLO 205 colon
DU-145 prostate = system: DU-145 prostate
EKVX NSCLC = system: EKVX NSCLC
HCC-2998 colon = system: HCC-2998 colon
HCT-116 colon = system: HCT-116 colon
HCT-15 colon = system: HCT-15 colon
HL-60(TB) leukemia = system: HL-60(TB) leukemia
HOP-62 NSCLC = system: HOP-62 NSCLC
HOP-92 NSCLC = system: HOP-92 NSCLC
HS 578T breast = system: HS 578T breast
HT29 colon = system: HT29 colon
IGROV1 ovarian = system: IGROV1 ovarian
K-562 leukemia = system: K-562 leukemia
KM12 colon = system: KM12 colon
LOX IMVI melanoma = system: LOX IMVI melanoma
M14 melanoma = system: M14 melanoma
MALME-3M melanoma = system: MALME-3M melanoma
MCF7 breast = system: MCF7 breast
MDA-MB-231 breast = system: MDA-MB-231 breast
MDA-MB-435 melanoma = system: MDA-MB-435 melanoma
MDA-MB-468 breast = system: MDA-MB-468 breast
MOLT-4 leukemia = system: MOLT-4 leukemia

Cc1cc(C(=O)NC(CCC(=O)O)C(=O)O)sc1CCC1CNc2nc(N)[nH]c(=O)c2C1 (stereo not drawn)
GI50 ([…]-0 renal): < 10 nM
TGI (786-0 renal): < 10 nM
GI50 (A498 renal): < 10 nM
TGI (A498 renal): 11.3 nM and 25.3 nM
GI50 (A549 NSCLC): 20.1 nM and 24.2 nM
TGI (A549 NSCLC): 42.8 nM and 61 nM
GI50 (ACHN renal): < 10 nM and 19.6 nM
TGI (ACHN renal): < 10 nM and 43.1 nM
GI50 (BT-549 breast): 19.3 nM and 18.2 nM
TGI (BT-549 breast): 37.5 nM and 36.4 nM
GI50 (CAKI-1 renal): < 10 nM
TGI (CAKI-1 renal): < 10 nM
GI50 (CCRF-CEM leukemia): < 10 nM
TGI (CCRF-CEM leukemia): 11.8 nM and 18.6 nM
GI50 (COLO 205 colon): 28.5 nM and 29.7 nM
TGI (COLO 205 colon): 81.6 nM and 141 nM
GI50 (DU-145 prostate): < 10 nM
TGI (DU-145 prostate): < 10 nM and 29.4 nM
GI50 (EKVX NSCLC): 12 nM and 17.1 nM
TGI (EKVX NSCLC): 28.8 nM and 36.1 nM
GI50 (HCC-2998 colon): 22.4 nM and 51.4 nM
TGI (HCC-2998 colon): 77.2 nM and 378 nM
GI50 (HCT-116 colon): < 10 nM and 15.9 nM
TGI (HCT-116 colon): 24.8 nM and 39.8 nM
GI50 (HCT-15 colon): 25 nM and 31.4 nM
TGI (HCT-15 colon): 73.3 nM and 158 nM
GI50 (HL-60(TB) leukemia): < 10 nM
TGI (HL-60(TB) leukemia): < 10 nM and 14.1 nM
GI50 (HOP-62 NSCLC): 18.2 nM
TGI (HOP-62 NSCLC): 34.6 nM and 35.8 nM
GI50 (HOP-92 NSCLC): < 10 nM
TGI (HOP-92 NSCLC): < 10 nM and 14.9 nM
GI50 (HS 578T breast): 22 nM and 25.9 nM
TGI (HS 578T breast): 60.1 nM and 107 nM
GI50 (HT29 colon): < 10 nM and 17 nM
TGI (HT29 colon): 28.5 nM and 46.4 nM
GI50 (IGROV1 ovarian): 19.7 nM and 20.3 nM
TGI (IGROV1 ovarian): 40.9 nM and 43.8 nM
GI50 (K-562 leukemia): < 10 nM
TGI (K-562 leukemia): < 10 nM
GI50 (KM12 colon): 25.6 nM and 28.7 nM
TGI (KM12 colon): 97.6 nM and 196 nM
GI50 (LOX IMVI melanoma): 19.4 nM and 20 nM
TGI (LOX IMVI melanoma): 40.7 nM and 44.4 nM
GI50 (M14 melanoma): < 10 nM
TGI (M14 melanoma): < 10 nM and 22.8 nM
GI50 (MALME-3M melanoma): 16 nM and 19.8 nM
TGI (MALME-3M melanoma): 35.8 nM and 41.1 nM
GI50 (MCF7 breast): < 10 nM and 17.5 nM
TGI (MCF7 breast): 28 nM and 47.7 nM
GI50 (MDA-MB-231 breast): 388 nM and 1680 nM
TGI (MDA-MB-231 breast): 1430 nM and 3460 nM
GI50 (MDA-MB-435 melanoma): 17.3 nM and 16.7 nM
TGI (MDA-MB-435 melanoma): 38.2 nM and 38.7 nM
GI50 (MDA-MB-468 breast): 17.5 nM and 17.6 nM
TGI (MDA-MB-468 breast): 33.9 nM and 37.5 nM
GI50 (MOLT-4 leukemia): < 10 nM
TGI (MOLT-4 leukemia): 12.8 nM and 16.8 nM
